Where “and” joins values, the source holds several entries; their conditions need not be identical. Equal values may be shown once. Read-outs that look alike come from different tables or passages of the source.
How the values were obtained:
LecBPA14 [1] = biological target: T1, LecBPA14 (Pseudomonas aeruginosa, UniProt A0A0H2ZE85); experiment: biochemical; type: binding, P. aeruginosa PA14
Description: (§1) To quantify the binding affinities of the carbohydrates we adapted the competitive binding assay for LecBPA14 (Fig. S5 ^†) previously described for LecBPAO1.[18]
(§2) The competitive binding assay based on fluorescence polarization was performed as described previously for PAO1.[18] […] After addition of the reagents, the plate was incubated for 8–22 h at r.t. in a humidity chamber. […] The measured intensities were reduced by buffer values and fluorescence polarization was calculated. The data were analyzed using BMG Labtech MARS software and/or with Graphpad Prism and fitted according to the four parameter variable slope model. […] A minimum of three independent measurements of triplicates each was performed for every ligand.

LecBPAO1 [2] = biological target: T2, LecBPAO1 (Pseudomonas aeruginosa, UniProt Q9HYN5); experiment: biochemical; type: binding, P. aeruginosa PAO1
Description: as §1, §2

LecBPAO1 [3] = biological target: T2, LecBPAO1; settings: cited from earlier work; for N (LecBPAO1): ITC stoichiometry
LecBPA14 [4] = biological target: T1, LecBPA14; experiment: biochemical; type: binding, P. aeruginosa PA14; remark: listed apart in the source
LecBPAO1 [5] = biological target: T2, LecBPAO1; experiment: biochemical; type: binding, P. aeruginosa PAO1; remark: listed apart in the source
[6] = biological target: LecB from P. aeruginosa PA14 (Pseudomonas aeruginosa UCBPP-PA14); experiment: dynamic light scattering; 100 μM LecB in TBS/Ca (20 mM Tris, 137 mM NaCl, 2.6 mM KCl, pH 7.4, 1 mM CaCl2), 25 °C, Zetasizer Nano-ZS
[7] = biological target: LecB from P. aeruginosa PA14 (Pseudomonas aeruginosa UCBPP-PA14); experiment: crystal structure; native LecB_(PA14), hanging drop vapor diffusion at 19 °C, molecular replacement with the tetramer of PDB 1UZV, 1.70 Å
[8] = LecBPAO1 IC50, competitive binding assay, Fig. 3
[9] = individual ITC titrations, Fig. S6, TBS supplemented with 1 mM CaCl2
[10] = individual ITC titrations, Fig. S6, TBS supplemented with 1 mM CaCl2, protein and ligand concentrations vary
[11] = IC50 for LecBPAO1, competitive binding assay

Which results are given for `OCC1OC(OC2C(O)OC(CO)C(O)C2O)C(O)C(O)C1O` [Compound 10, α-1,2-D-mannosyl D-mannose]?
IC50 (LecBPA14 [1]): 26000 ± 5000 nM; IC50 (LecBPAO1 [2]; [8]): 85000 ± 2000 nM

For `OC[C@H]1OC[C@@H](O)[C@@H](O)[C@@H]1O` [Compound 9, 1-deoxy D-mannose], which IC50 (LecBPA14 [1]) is on record?
Its IC50 is 56000 ± 16000 nM.

With `C[C@@H]1OC[C@@H](O)[C@H](O)[C@@H]1O` [Compound 8, 1-deoxy L-fucose] as the compound, how does the IC50 (LecBPA14 [1]) read?
Its IC50 is 610 ± 100 nM.

With `CO[C@H]1O[C@H](CO)[C@@H](O)[C@H](O)[C@@H]1O` [Compound 5, methyl α-D-mannoside] as the compound, how does the “N (LecBPAO1)” value (LecBPAO1 [3]) read?
The value was 0.94.

What about the “-TΔS (LecBPAO1)” value (LecBPAO1 [3]; ITC) of the same compound?
Its value is -1.41 kcal/mol.

What about the “ΔH (LecBPAO1)” value (LecBPAO1 [3]; ITC) of the same compound?
The value was -4.25 kcal/mol.

What about the “-TΔS (LecBPA14)” value (LecBPA14 [4]) of the same compound?
Its value is -3.47 ± 0.0789 kcal/mol.

What about the G (LecBPA14 [4]) of the same compound?
The G was -6,63E+03 cal/mol and -6,52E+03 cal/mol and -6,48E+03 cal/mol.

What about the Ka (LecBPA14 [4]) of the same compound?
The Ka was 7,18E+04 1/M and 6,20E+04 1/M and 5,54E+04 1/M.

What about the “N (LecBPA14)” value (LecBPA14 [4]) of the same compound?
The value was 1.03 ± 0.07.

And the s (LecBPA14 [4])?
Its s is 11,8 cal/molK and 11,3 cal/molK and 11,7 cal/molK.

And the “ΔH (LecBPA14)” value (LecBPA14 [4])?
The value was -3.08 ± 0.0813 kcal/mol.

With `CO[C@@H]1O[C@@H](C)[C@@H](O)[C@@H](O)[C@@H]1O` [Compound 2, methyl α-L-fucoside] as the compound, how does the “-TΔS (LecBPAO1)” value (LecBPAO1 [3]; ITC) read?
Its value is 1.17 kcal/mol.

And the “ΔH (LecBPAO1)” value (LecBPAO1 [3]; ITC)?
Its value is -9.87 kcal/mol.

And the “N (LecBPA14)” value (LecBPA14 [4]; ITC stoichiometry, 25 °C)?
The value was 0.99 ± 0.04.

And the “-TΔS (LecBPA14)” value (LecBPA14 [4]; ITC, 25 °C)?
Its value is -1.5 ± 0.201 kcal/mol.

What about the “ΔH (LecBPA14)” value (LecBPA14 [4]; ITC, 25 °C) of the same compound?
The value was -7.65 ± 0.227 kcal/mol.

What about the G (LecBPA14 [4]; [9]) of the same compound?
Its G is -9,15E+03 cal/mol and -9,22E+03 cal/mol and -9,24E+03 cal/mol and -8,96E+03 cal/mol.

What about the H (LecBPA14 [4]; [9]) of the same compound?
The H was -7.957 kcal/mol and -7.593 kcal/mol and -7.612 kcal/mol and -7.414 kcal/mol.

And the s (LecBPA14 [4]; [9])?
The s was 5,45 cal/molK and 5,47 cal/molK and 5,18 cal/molK and 4,01 cal/molK.

What about the Ka (LecBPA14 [4]; [10]) of the same compound?
The Ka was 3,69E+06 1/M.

Which results are given for `OCC1OC(OC2C(O)C(O)OC(CO)C2O)C(O)C(O)C1O` [Compound 11, α-1,3-D-mannosyl D-mannose]?
IC50 (LecBPA14 [1]): 26000 ± 6000 nM; IC50 (LecBPAO1 [2]; [8]): 63000 ± 3000 nM

For `CO[C@@H]1OC[C@@H](O)[C@@H](O)[C@@H]1O` [Compound 6, methyl β-D-arabinoside], which IC50 (LecBPA14 [1]) is on record?
Its IC50 is 1900 ± 400 nM.

With `CC(=O)NC1C(OC2C(O)C(O)OC(CO)C2O)OC(CO)C(OC2OC(C)C(O)C(O)C2O)C1OC1OC(CO)C(O)C(O)C1OC1OC(C)C(O)C(O)C1O` (stereo not shown) [Compound 16, Lewis^b] as the compound, how does the IC50 (LecBPA14 [1]) read?
The IC50 was 150 ± 10 nM.

What about the IC50 (LecBPAO1 [2]; [8]) of the same compound?
Its IC50 is 690 ± 40 nM.

What does the source list for `CC(=O)NC1C(OC2C(O)C(O)OC(CO)C2O)OC(CO)C(OC2OC(CO)C(O)C(O)C2OC2OC(C)C(O)C(O)C2O)C1O` (stereo not shown) [Compound 15, H type II]?
Kd (LecBPAO1 [5]): 605 ± 140 nM; N (LecBPAO1) (LecBPAO1 [5]; ITC stoichiometry, 25 °C): 1.01 ± 0.07; -TΔS (LecBPAO1) (LecBPAO1 [5]; ITC, 25 °C): -0.837 ± 0.096 kcal/mol; ΔG (LecBPAO1) (LecBPAO1 [5]; ITC, 25 °C): -8.48 ± 0.12 kcal/mol; ΔH (LecBPAO1) (LecBPAO1 [5]; ITC, 25 °C): -7.67 ± 0.096 kcal/mol; IC50 (LecBPA14 [1]): 180 nM; IC50 (LecBPAO1 [2]; [11]): 930 nM; N (LecBPA14) (LecBPA14 [4]; ITC stoichiometry, 25 °C): 0.98 ± 0.03; -TΔS (LecBPA14) (LecBPA14 [4]; ITC, 25 °C): -2.75 ± 0.263 kcal/mol; ΔG (LecBPA14) (LecBPA14 [4]; ITC, 25 °C): -9.18 ± 0.22 kcal/mol; ΔH (LecBPA14) (LecBPA14 [4]; ITC, 25 °C): -6.43 ± 0.454 kcal/mol; Kd (LecBPA14 [4]; Kd (LecBPA14), ITC, 25 °C): 199 nM

Which IC50 (LecBPA14 [1]) does the source give for `CC(=O)N[C@H]1[C@H](O[C@H]2[C@H](O)[C@@H](NC(C)=O)C(O)O[C@@H]2CO)O[C@H](CO)[C@@H](O[C@@H]2O[C@H](CO[C@H]3O[C@H](CO)[C@@H](O)[C@H](O)[C@@H]3O[C@@H]3O[C@H](CO)[C@@H](O[C@@H]4O[C@H](CO)[C@H](O)[C@H](O[C@@H]5O[C@H](CO)[C@@H](O[C@@H]6O[C@H](CO)[C@H](O)[C@H](O)[C@H]6O[C@@H]6O[C@@H](C)[C@@H](O)[C@@H](O)[C@@H]6O)[C@H](O)[C@H]5NC(C)=O)[C@H]4O)[C@H](O)[C@H]3NC(C)=O)[C@@H](O)[C@H](O[C@H]3O[C@H](CO)[C@@H](O)[C@H](O)[C@@H]3O[C@@H]3O[C@H](CO)[C@@H](O[C@@H]4O[C@H](CO)[C@H](O)[C@H](O[C@@H]5O[C@H](CO)[C@@H](O[C@@H]6O[C@H](CO)[C@H](O)[C@H](O)[C@H]6O[C@@H]6O[C@@H](C)[C@@H](O)[C@@H](O)[C@@H]6O)[C@H](O)[C@H]5NC(C)=O)[C@H]4O)[C@H](O)[C@H]3NC(C)=O)[C@@H]2O)[C@@H]1O` (stereo partly shown) [Compound 23] here?
Its IC50 is 35 nM.

What about the IC50 (LecBPAO1 [2]; [11]) of the same compound?
The IC50 was 114 nM.

For `OC1[C@H](O)COC[C@H]1O` [Compound 7, 1-deoxy D-arabinose], which IC50 (LecBPA14 [1]) is on record?
Its IC50 is 6800 ± 1200 nM.

For “LecB from P. aeruginosa PA14 (natural protein)”, which stoichiometry N [6] is on record?
The stoichiometry N was 4.

And the stoichiometry N [7]?
Its stoichiometry N is 4.

With `CC(=O)NC1C(OC2C(O)C(O)OC(CO)C2O)OC(CO)C(OC2OC(C)C(O)C(O)C2O)C1OC1OC(CO)C(O)C(O)C1O` (stereo not shown) [Compound 12, Lewis^a] as the compound, how does the “N (LecBPAO1)” value (LecBPAO1 [3]) read?
The value was 1.08.

And the “-TΔS (LecBPAO1)” value (LecBPAO1 [3]; ITC)?
The value was -0.741 kcal/mol.

And the “ΔG (LecBPAO1)” value (LecBPAO1 [3]; ITC)?
Its value is -9.11 kcal/mol.

What about the “ΔH (LecBPAO1)” value (LecBPAO1 [3]; ITC) of the same compound?
Its value is -8.34 kcal/mol.

What about the Kd (LecBPAO1 [3]; read-out: Kd (LecBPAO1), ITC) of the same compound?
Its Kd is 212 nM.

And the IC50 (LecBPA14 [1])?
The IC50 was 78 nM.

What about the IC50 (LecBPAO1 [2]; [11]) of the same compound?
Its IC50 is 166 nM.

What about the IC50 (LecBPAO1 [2]; [8]) of the same compound?
The IC50 was 170 ± 10 nM.

What about the “N (LecBPA14)” value (LecBPA14 [4]; ITC stoichiometry, 25 °C) of the same compound?
The value was 1.05 ± 0.11.

What about the “-TΔS (LecBPA14)” value (LecBPA14 [4]; ITC, 25 °C) of the same compound?
The value was -0.813 ± 0.509 kcal/mol.

And the “ΔG (LecBPA14)” value (LecBPA14 [4]; ITC, 25 °C)?
Its value is -9.78 ± 0.196 kcal/mol.

And the “ΔH (LecBPA14)” value (LecBPA14 [4]; ITC, 25 °C)?
Its value is -8.99 ± 0.602 kcal/mol.

And the Kd (LecBPA14 [4]; Kd (LecBPA14), ITC, 25 °C)?
Its Kd is 70 nM.

What about the Kd (LecBPA14 [4]; Kd, individual ITC titrations, Fig. S6, TBS supplemented with 1 mM CaCl2) of the same compound?
Its Kd is 62.1 nM and 96.2 nM and 50.3 nM.

What about the G (LecBPA14 [4]; [9]) of the same compound?
Its G is -9,83E+03 cal/mol and -9,57E+03 cal/mol and -9,96E+03 cal/mol.

What about the H (LecBPA14 [4]; [9]) of the same compound?
The H was -8.521 kcal/mol and -8.769 kcal/mol and -9.667 kcal/mol.

What about the s (LecBPA14 [4]; [9]) of the same compound?
Its s is 4,39 cal/molK and 2,69 cal/molK and 0,969 cal/molK.

And the Ka (LecBPA14 [4]; [10])?
Its Ka is 1,61E+07 1/M and 1,04E+07 1/M and 1,99E+07 1/M.

What does the source list for `CC(=O)NC1C(OC2C(O)C(O)OC(CO)C2O)OC(CO)C(O)C1OC1OC(CO)C(O)C(O)C1OC1OC(C)C(O)C(O)C1O` (stereo not shown) [Compound 14, H type I]?
IC50 (LecBPA14 [1]): 910 ± 100 nM; IC50 (LecBPAO1 [2]; [8]): 2300 ± 100 nM

Reference: publication PMC6018602, “The virulence factor LecB varies in clinical isolates: consequences for ligand binding and drug discovery” (Chemical Science, 2016)
